Legend:
human CSNK1D = molecular target: T1, human CSNK1D (Homo sapiens, UniProt P48730); assay: Whole Cell nBRET CSNK1D Binding Assay; details: living CHO cells stably expressing human CSNK1D tagged with nanoluciferase; NanoBret tracer 130 nM; 2 hours at 37 C
T1 construct: expressed in transfected cells

[1] = molecular target: T2, human recombinant GST cleaved CSNK1D (Homo sapiens, UniProt P48730); assay: Purified Enzyme Assay (ADP-Glo CSNK1D Kinase Assay); assay type: biochemical; details: 2 nM CSNK1D; peptide substrate 150 μM; ATP 20 μM; 45 minutes at room temperature
T2 construct: GST (cleaved yes); purchased University of Dundee clone DU 19064
T2 sequence (P48730 whole entry): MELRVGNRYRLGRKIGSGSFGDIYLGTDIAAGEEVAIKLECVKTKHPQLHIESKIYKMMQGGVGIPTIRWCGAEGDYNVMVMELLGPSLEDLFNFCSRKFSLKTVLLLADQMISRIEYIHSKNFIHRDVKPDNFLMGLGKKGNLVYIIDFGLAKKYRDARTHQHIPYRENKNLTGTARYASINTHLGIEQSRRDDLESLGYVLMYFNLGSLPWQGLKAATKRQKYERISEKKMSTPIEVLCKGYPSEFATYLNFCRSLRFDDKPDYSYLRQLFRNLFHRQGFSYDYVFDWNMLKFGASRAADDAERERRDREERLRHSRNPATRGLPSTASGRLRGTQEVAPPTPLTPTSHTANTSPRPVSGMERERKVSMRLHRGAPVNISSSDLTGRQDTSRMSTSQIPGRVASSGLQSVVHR
Outline: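 GST-cleaved human recombinant CSNK1D phosphorylates peptide PLSRTL-pS-VASLPGL with ATP; compounds added in dose-response, 45 min at room temperature. ADP formed measured by ADP-Glo luminescence and converted to percent activity.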

T1 sequence (P48730 whole entry): as above

Row | IC50 (human CSNK1D) | IC50 [1] | Compound
1 | 100 nM | 11 nM | C[C@@]1(CF)CCc2c(-c3ccncc3)c(-c3ccc(F)cn3)nn2C1 (single isomer, unassigned) [Example 285, (*R)-6-(Fluoromethyl)-2-(5-fluoro-2-pyridyl)-6-methyl-3-(4-pyridyl)-5,7-dihydro-4H-pyrazolo[1,5-a]pyridine]
2 | 454 nM | 20 nM | CC(=O)Nc1cc(-c2c(-c3ccc(F)cn3)nn3c2CC[C@H]2C[C@H]23)ccn1 (stereo in doubt) [Example 342, N-(4-((5a*S,6a*R)-2-(5-Fluoropyridin-2-yl)-5,5a,6,6a-tetrahydro-4H-cyclopropa[e]pyrazolo[1,5-a]pyridin-3-yl)pyridin-2-yl)acetamide]
3 | 196 nM | 28 nM | CC1(C)COc2c(-c3ccnc4cc[nH]c34)c(-c3ccc(F)cc3)nn2C1 [Example 448, 2-(4-Fluorophenyl)-6,6-dimethyl-3-(1H-pyrrolo[3,2-b]pyridin-7-yl)-5,7-dihydropyrazolo[5,1-b][1,3]oxazine]
4 | 109 nM | 65 nM | Cc1n[nH]c2nc(C(F)F)cc(-c3c(-c4ccc(F)cc4)nn4c3COC(C(F)(F)F)C4)c12 (single isomer, unassigned) [Example 375, (*R)-3-[6-(Difluoromethyl)-3-methyl-1H-pyrazolo[3,4-b]pyridin-4-yl]-2-(4-fluorophenyl)-6-(trifluoromethyl)-6,7-dihydro-4H-pyrazolo[5,1-c][1,4]oxazine]
5 | 371 nM | 22 nM | C[C@@H]1Cn2nc(-c3ccc(F)cn3)c(-c3ccnc4[nH]ncc34)c2CO1 (single isomer, unassigned) [Example 85, (*R)-2-(5-Fluoro-2-pyridyl)-6-methyl-3-(1H-pyrazolo[3,4-b]pyridin-4-yl)-6,7-dihydro-4H-pyrazolo[5,1-c][1,4]oxazine]
6 | 17 nM | 1 nM | Fc1ccc(-c2nn3c(c2-c2ccnc4[nH]nc(Cl)c24)OCC(F)(F)C3)cc1 [Example 470, 3-(3-Chloro-1H-pyrazolo[3,4-b]pyridin-4-yl)-6,6-difluoro-2-(4-fluorophenyl)-6,7-dihydro-5H-pyrazolo[5,1-b][1,3]oxazine]
7 | 4100 nM | 238 nM | CC1(CF)CCc2c(-c3cc(F)ncc3F)c(-c3ccc(F)cn3)nn2C1 (racemic) [Example 288, 3-(2,5-Difluoro-4-pyridyl)-6-(fluoromethyl)-2-(5-fluoro-2-pyridyl)-6-methyl-5,7-dihydro-4H-pyrazolo[1,5-a]pyridine]
8 | 19 nM | 2 nM | Cc1cc(-c2c(-c3ccc(F)cc3)nn3c2CC[C@H]3C)c2cn[nH]c2n1 [Example 18, 4-[(6R)-2-(4-Fluorophenyl)-6-methyl-5,6-dihydro-4H-pyrrolo[1,2-b]pyrazol-3-yl]-6-methyl-1H-pyrazolo[3,4-b]pyridine]
9 | 120 nM | 539 nM | CC1(CF)CCc2c(-c3ccn4nccc4c3)c(-c3ccc(F)cn3)nn2C1 (single isomer, unassigned) [Example 290, (*S)-5-[6-(Fluoromethyl)-2-(5-fluoro-2-pyridyl)-6-methyl-5,7-dihydro-4H-pyrazolo[1,5-a]pyridin-3-yl]pyrazolo[1,5-a]pyridine]
10 | 63 nM | 3 nM | COCC1(C)CCc2c(-c3cc(C)nc4[nH]ncc34)c(-c3ccc(F)cn3)nn2C1 (single isomer, unassigned) [Example 56, (*R)-4-(2-(S-Fluoropyridin-2-yl)-6-(methoxymethyl)-6-methyl-4,5,6,7-tetrahydropyrazolo[1,5-a]pyridin-3-yl)-6-methyl-1H-pyrazolo[3,4-b]pyridine]
11 | 30 nM | 4 nM | [2H]C([2H])([2H])C1(C([2H])([2H])[2H])Cn2nc(-c3ccc(F)cn3)c(-c3ccnc4[nH]nc(Cl)c34)c2CO1 [Example 400, 3-(3-Chloro-1H-pyrazolo[3,4-b]pyridin-4-yl)-2-(5-fluoropyridin-2-yl)-6,6-bis(methyl-d3)-6,7-dihydro-4H-pyrazolo[5,1-c][1,4]oxazine]
12 | 25 nM | 2 nM | Cc1cc(-c2c(-c3ccc(F)cc3)nn3c2OCCCC3)c2cn[nH]c2n1 [Example 217, 2-(4-Fluorophenyl)-3-(6-methyl-1H-pyrazolo[3,4-b]pyridin-4-yl)-5,6,7,8-tetrahydropyrazolo[5,1-b][1,3]oxazepane]
13 | 11 nM | 1 nM | Cc1cc(-c2c(-c3ccc(F)cc3)nn3c2OC[C@H](C)C3)c2cn[nH]c2n1 (single isomer, unassigned) [Example 194, (*R)-2-(4-Fluorophenyl)-6-methyl-3-(6-methyl-1H-pyrazolo[3,4-b]pyridin-4-yl)-6,7-dihydro-5H-pyrazolo[5,1-b][1,3]oxazine]
14 | 24 nM | 2 nM | [2H]C([2H])([2H])[C@]1(C([2H])([2H])F)CCc2c(-c3c(F)cnc4[nH]ncc34)c(-c3ccc(F)cn3)nn2C1 (single isomer, unassigned) [Example 295, (*S)-5-Fluoro-4-(6-(fluoromethyl-d2)-2-(5-fluoropyridin-2-yl)-6-(methyl-d5)-4,5,6,7-tetrahydropyrazolo[1,5-a]pyridin-3-yl)-1H-pyrazolo[3,4-b]pyridine]
15 | 55 nM | 3 nM | Fc1ccc(-c2nn3c(c2-c2ccnc4[nH]ncc24)C2CCC3CC2)nc1 [Example 65, 2-(5-Fluoropyridin-2-yl)-3-(1H-pyrazolo[3,4-b]pyridin-4-yl)-4,5,6,7-tetrahydro-4,7-ethanopyrazolo[1,5-a]pyridine]
16 | 3830 nM | 1120 nM | Fc1ccc(-c2nn3c(c2-c2ccn4nccc4c2)CC[C@H]2[C@@H]3C2(F)F)cc1 (stereo in doubt) [Example 353, (5a*S,6a*R)-6,6-Difluoro-2-(4-fluorophenyl)-3-(pyrazolo[1,5-a]pyridin-4-yl)-5,5a,6,6a-tetrahydro-4H-cyclopropa[e]pyrazolo[1,5-a]pyridine]
17 | 671 nM | 29 nM | Cc1cc(-c2c(-c3ccc(F)cn3)nn3c2CC(F)C3)c2cn[nH]c2n1 (stereo not shown) [Example 13, 4-(5-Fluoro-2-(5-fluoropyridin-2-yl)-5,6-dihydro-4H-pyrrolo[1,2-b]pyrazol-3-yl)-6-methyl-1H-pyrazolo[3,4-b]pyridine]
18 | 23 nM | 5 nM | [2H]C([2H])([2H])C1(C([2H])([2H])[2H])Cn2nc(-c3ccc(F)cn3)c(-c3c(F)cnc4[nH]nc(Cl)c34)c2CO1 [Example 403, 3-(3-Chloro-5-fluoro-1H-pyrazolo[3,4-b]pyridin-4-yl)-2-(5-fluoropyridin-2-yl)-6,6-bis(methyl-d3)-6,7-dihydro-4H-pyrazolo[5,1-c][1,4]oxazine]
19 | 29 nM | 3 nM | [2H]C([2H])([2H])C1(C([2H])([2H])[2H])Cn2nc(-c3ccc(F)cn3)c(-c3ccnc4[nH]nc(F)c34)c2CO1 [Example 398, 3-(3-Fluoro-1H-pyrazolo[3,4-b]pyridin-4-yl)-2-(5-fluoropyridin-2-yl)-6,6-bis(methyl-d3)-6,7-dihydro-4H-pyrazolo[5,1-c][1,4]oxazine]
20 | > 10000 nM | 183 nM | COCC1(F)CCc2c(-c3cc(C(F)F)nc4[nH]ncc34)c(-c3ccc(F)cn3)nn2C1 (single isomer, unassigned) [Example 307, (*R)-6-(Difluoromethyl)-4-[6-fluoro-2-(5-fluoro-2-pyridyl)-6-(methoxymethyl)-5,7-dihydro-4H-pyrazolo[1,5-a]pyridin-3-yl]-1H-pyrazolo[3,4-b]pyridine]
21 | 43 nM | 6 nM | Cc1cc(-c2c(-c3ccc(F)cc3)nn3c2[C@H]2C[C@H]2C3)c2cn[nH]c2n1 (single isomer, unassigned) [Example 277, (3b*S,4a*R)-2-(4-Fluorophenyl)-3-(6-methyl-1H-pyrazolo[3,4-b]pyridin-4-yl)-3b,4,4a,5-tetrahydrocyclopropa[3,4]pyrrolo[1,2-b]pyrazole]
22 | 6 nM | 1 nM | C[C@@H]1n2nc(-c3ccc(F)cc3)c(-c3ccnc4[nH]ncc34)c2COC1(C)C (single isomer, unassigned) [Example 171]
23 | 74 nM | 8 nM | CC(=O)Nc1cc(-c2c(-c3ccc(F)cc3)nn3c2CC[C@@H]2[C@H]3C2(F)F)ccn1 (stereo in doubt) [Example 349, N-(4-((5a*R,6a*S-6,6-Difluoro-2-(4-fluorophenyl)-5,5a,6,6a-tetrahydro-4H-cyclopropa[e]pyrazolo[1,5-a]pyridin-3-yl)pyridin-2-yl)acetamide]
24 | 131 nM | 6 nM | Fc1ccc(-c2nn3c(c2-c2ccnc4[nH]ncc24)C[C@H]2C[C@H]23)cc1 [Example 267, (4aR,5aR)-2-(4-Fluorophenyl)-3-(1H-pyrazolo[3,4-b]pyridin-4-yl)-4,4a,5,5a-tetrahydrocyclopropa[4,5]pyrrolo[1,2-b]pyrazole]
25 | 3740 nM | 84 nM | COC[C@@]1(F)CCc2c(-c3cc(C)nc4[nH]ncc34)c(-c3ccc(F)cn3)nn2C1 (single isomer, unassigned) [Example 54, (*R)-4-(6-Fluoro-2-(5-fluoropyridin-2-yl)-6-(methoxymethyl)-4,5,6,7-tetrahydropyrazolo[1,5-a]pyridin-3-yl)-6-methyl-1H-pyrazolo[3,4-b]pyridine]
26 | 137 nM | 9 nM | Fc1ccc(-c2nn3c(c2-c2ccnc4[nH]ncc24)COCC32CC2)cc1 [Example 106, 2′-(4-Fluorophenyl)-3′-(1H-pyrazolo[3,4-b]pyridin-4-yl)-4′H,6′H-spiro[cyclopropane-1,7′-pyrazolo[5,1-c][1,4]oxazine]]
